Reference: ChEMBL document CHEMBL3872283, “Design, Synthesis, and Evaluation of Novel and Selective G-protein Coupled Receptor 120 (GPR120) Spirocyclic Agonists” (ACS Med Chem Lett, 2017)
Activity calls are given as the source filed them. No cut-off for these calls is given here.

Experiments:
[1] = biological target: T1, Free fatty acid receptor 4 (Mus musculus, UniProt Q7TMA4); test: Agonist activity at mouse GPR120 expressed in CHOK1 cells assessed as induction of IP1 accumulation after 60 mins by HTRF assay; format: functional, cell-based, CHO-K1
T1 sequence (Q7TMA4 whole entry): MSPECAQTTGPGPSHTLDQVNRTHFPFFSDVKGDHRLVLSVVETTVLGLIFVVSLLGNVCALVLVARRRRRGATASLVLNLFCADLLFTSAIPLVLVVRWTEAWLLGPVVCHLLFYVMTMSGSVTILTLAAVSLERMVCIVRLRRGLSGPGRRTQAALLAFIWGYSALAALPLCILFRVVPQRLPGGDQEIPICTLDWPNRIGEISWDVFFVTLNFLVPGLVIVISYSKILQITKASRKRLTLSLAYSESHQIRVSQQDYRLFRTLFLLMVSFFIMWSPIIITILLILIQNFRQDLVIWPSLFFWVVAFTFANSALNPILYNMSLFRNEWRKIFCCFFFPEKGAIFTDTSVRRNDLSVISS

[2] = biological target: T2, Free fatty acid receptor 4 (Homo sapiens, UniProt Q5NUL3); test: Agonist activity at ARMS2-PK2 -tagged human GPR120 short isoform expressed in CHOK1 cells assessed as induction of beta-arrestin2 recruitment after 90 mins by luminescence assay; format: cell-based, CHO-K1
T2 sequence (Q5NUL3 whole entry): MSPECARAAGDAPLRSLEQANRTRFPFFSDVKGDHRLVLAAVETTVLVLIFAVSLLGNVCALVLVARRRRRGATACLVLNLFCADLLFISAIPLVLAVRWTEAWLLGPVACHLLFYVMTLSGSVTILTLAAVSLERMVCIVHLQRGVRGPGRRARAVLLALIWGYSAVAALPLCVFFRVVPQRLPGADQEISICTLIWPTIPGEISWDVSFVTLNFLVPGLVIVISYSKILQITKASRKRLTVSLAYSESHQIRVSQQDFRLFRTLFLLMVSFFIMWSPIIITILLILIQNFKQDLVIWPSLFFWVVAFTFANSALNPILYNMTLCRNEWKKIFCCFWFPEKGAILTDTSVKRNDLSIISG

[3] = biological target: T1, Free fatty acid receptor 4; test: Agonist activity at mouse GPR120 expressed in U2OS cells assessed as induction of beta-arrestin2 recruitment after 90 mins by luminescence assay; format: cell-based
[4] = biological target: T2, Free fatty acid receptor 4; test: Agonist activity at human GPR120 short isoform expressed in CHOK1 cells assessed as induction of IP1 accumulation after 60 mins by HTRF assay; format: functional, cell-based, CHO-K1
[5] = biological target: T3, Free fatty acid receptor 1 (Homo sapiens, UniProt O14842); test: Agonist activity at human GPR40 expressed in HEK293 cells assessed as induction of IP1 accumulation after 60 mins by HTRF assay; format: functional, cell-based
[6] = biological target: T1, Free fatty acid receptor 4; test: Agonist activity at mouse GPR120 assessed as induction of beta-arrestin recruitment
[7] = biological target: T2, Free fatty acid receptor 4; test: Agonist activity at human GPR120 assessed as induction of beta-arrestin recruitment
[8] = biological target: T3, Free fatty acid receptor 1; test: Agonist activity at human GPR40 assessed as induction of IP1 accumulation; format: functional
[9] = tested on: Mus musculus; test: Toxicity in diet-induced obese mouse assessed as change in body weight at 10 mg/kg, po qd administered daily via gavage for 28 days; format: organism-based; settings: in vivo, 672 h
[10] = tested on: Mus musculus; test: Antidiabetic activity in diet-induced obese mouse assessed as increase in glucose infusion rate during hyperinsulinemic euglycemic clamp procedure at 10 mg/kg, po qd administered daily via gavage measured after 28 days; format: functional, organism-based
[11] = tested on: Mus musculus; test: Decrease in insulin levels in diet-induced obese mouse at 10 mg/kg, po qd administered daily via gavage for 28 days measured on day 28 post dose; format: functional, organism-based
[12] = tested on: Mus musculus; test: Antidiabetic activity in diet-induced obese mouse assessed as insulin sensitivity by measuring reduction in glucose at 10 mg/kg, po qd administered daily via gavage for 14 days measured on day 14 post dose; format: functional, organism-based
[13] = tested on: Mus musculus; test: Antidiabetic activity in diet-induced obese mouse assessed as insulin sensitivity by measuring reduction in glucose at 10 mg/kg, po qd administered daily via gavage for 28 days measured on day 28 post dose; format: functional, organism-based
[14] = tested on: Mus musculus; test: Decrease in insulin levels in diet-induced obese mouse at 10 mg/kg, po qd administered daily via gavage for 14 days measured on day 14 post dose; format: functional, organism-based
[15] = biological target: T2, Free fatty acid receptor 4; test: Agonist activity at human GPR120 assessed as induction of IP1 accumulation; format: functional
[16] = biological target: T1, Free fatty acid receptor 4; test: Agonist activity at mouse GPR120 assessed as induction of IP1 accumulation; format: functional

T3 sequence (O14842 whole entry): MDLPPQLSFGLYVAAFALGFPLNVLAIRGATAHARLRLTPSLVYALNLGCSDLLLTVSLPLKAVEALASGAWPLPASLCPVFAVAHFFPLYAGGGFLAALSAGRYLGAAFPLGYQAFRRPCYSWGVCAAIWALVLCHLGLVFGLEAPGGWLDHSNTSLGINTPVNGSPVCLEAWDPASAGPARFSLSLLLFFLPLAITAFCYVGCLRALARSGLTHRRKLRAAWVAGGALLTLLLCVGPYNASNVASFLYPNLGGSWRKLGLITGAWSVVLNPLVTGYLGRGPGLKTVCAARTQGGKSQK

Row | Compound | EC50 [1] | EC50 [2] | EC50 [3] | EC50 [4] | EC50 [5] | also measured
1 | COc1ccc(Cl)c(N2CCC3(CCC(CC(=O)O)CC3)CC2)c1 | 570 nM | 2500 nM | 5300 nM | 2100 nM | > 10000 nM | 
2 | CC1CC2(CCC1CC(=O)O)CCN(c1cc(OC(F)(F)F)ccc1Cl)CC2 (stereo unspecified) |  | 2700 nM |  | 4100 nM |  | 
3 | O=C(O)CCC1CCC2(CC1)CCN(c1cc(OC(F)(F)F)ccc1Cl)CC2 |  | 1000 nM |  | 2700 nM |  | 
4 | Cc1cc(-c2cc(OC(F)(F)F)ccc2Cl)cc(C)c1OCCCC(=O)O |  |  |  |  |  | EC50 [6]: 35 nM; EC50 [7]: 100 nM; EC50 [8]: > 10000 nM
5 | O=C(O)CC1CCC2(CCN(c3cc(OC(F)(F)F)ccc3Cl)CC2)OC1 (stereo unspecified) |  | 2100 nM |  | 5700 nM |  | 
6 | O=C(O)CCc1cc2cc(-c3cc(OC(F)(F)F)ccc3F)ccc2o1 |  |  |  |  |  | EC50 [6]: 21 nM; EC50 [7]: 16 nM
7 | O=C(O)C1CC12CCC1(CCN(c3cc(OC(F)(F)F)ccc3Cl)CC1)CC2 (stereo unspecified) |  | 3900 nM |  | 2200 nM |  | 
8 | CCc1ccc(CCOc2ccc(CC3SC(=O)NC3=O)cc2)nc1 (stereo unspecified) [PIOGLITAZONE] |  |  |  |  |  | Activity [9]: Toxic; Activity [10]: Active; Activity [11]: Active; Activity [12]: Active; Activity [13]: Active; Activity [14]: Active
9 | O=C(O)CC1CCC2(CC1)CCN(c1cc(Cl)cc(Cl)c1)CC2 | 51 nM | 190 nM | 120 nM | 220 nM | 6300 nM | 
10 | O=C(O)CC1CCC2(CC1)CCN(c1cc(OC(F)(F)F)ccc1F)CC2 | 49 nM | 700 nM | 470 nM | 130 nM | > 10000 nM | 
11 | O=C(O)c1ccc(C2CCN(c3cc(OC(F)(F)F)ccc3F)CC2)cc1 |  |  |  |  |  | EC50 [15]: > 10000 nM; EC50 [6]: > 10000 nM; EC50 [7]: > 10000 nM; EC50 [8]: > 10000 nM; EC50 [16]: > 10000 nM
12 | CC(C(=O)O)C1CCC2(CC1)CCN(c1cc(OC(F)(F)F)ccc1Cl)CC2 (stereo unspecified) |  | 4400 nM |  | 3500 nM |  | 
13 | O=C(O)CC1CCC2(CC1)CCN(c1ccccc1Cl)CC2 | > 10000 nM | > 10000 nM | > 10000 nM | > 10000 nM | > 10000 nM | 
14 | O=C(O)CN1CCC2(CC1)CCN(c1cc(OC(F)(F)F)ccc1F)CC2 |  | > 10000 nM |  | > 10000 nM |  | 
15 | CC1CC(CC(=O)O)CCC12CCN(c1cc(OC(F)(F)F)ccc1Cl)CC2 (stereo unspecified) |  | 580 nM |  | 440 nM |  | 
16 | OCCC1CCC2(CC1)CCN(c1cc(OC(F)(F)F)ccc1Cl)CC2 |  | 330 nM |  | 4300 nM |  | 
17 | O=C(O)C1CCC(C2CCN(c3cc(OC(F)(F)F)ccc3F)CC2)CC1 (stereo unspecified) |  |  |  |  |  | EC50 [15]: 700 nM; EC50 [6]: 990 nM; EC50 [8]: > 10000 nM; EC50 [16]: 1490 nM
18 | O=C(O)CC1CCC2(CC1)CCN(c1cc(C(F)(F)F)ccn1)CC2 | 1300 nM | 9200 nM | 4200 nM | 3100 nM | > 10000 nM | 
19 | O=C(O)CC1CCC2(CC1)CCN(c1cc(F)cc(Cl)c1F)CC2 | 190 nM | 1400 nM | 1100 nM | 420 nM | 8100 nM | 
20 | O=C(O)C1CCN(c2ccc(-c3cc(OC(F)(F)F)ccc3F)cc2)CC1 |  |  |  |  |  | EC50 [15]: 300 nM; EC50 [6]: 320 nM; EC50 [7]: 1600 nM; EC50 [8]: > 10000 nM; EC50 [16]: 89 nM
21 | N#Cc1cc(SC(F)(F)F)cc(N2CCC3(CCC(CC(=O)O)CC3)CC2)c1 | 44 nM | 480 nM | 140 nM | 360 nM | > 10000 nM | 
22 | CC1(C)Cc2cc(Cl)cc(N3CCC4(CCC(CC(=O)O)CC4)CC3)c2O1 | 670 nM | 3100 nM | 4000 nM | 3300 nM | > 10000 nM | 
23 | N#Cc1ccc(OC(F)(F)F)cc1N1CCC2(CCC(CC(=O)O)CC2)CC1 | 66 nM | 370 nM | 290 nM | 200 nM | 2500 nM | 
24 | O=C(O)CC1CCC2(CC1)CCN(c1cc(C(F)(F)F)ccc1F)CC2 | 590 nM | 2200 nM | 3000 nM | 1200 nM | > 10000 nM | 
